Data on two compounds can be found in patent US5023269A, “3-aryloxy-3-substituted propanamines” (Eli Lilly and Company, priority 1990, dated 1991).

Where a name gives a salt, the structure may show the parent alone.

In assay [1] the test system is serotonin (5HT) uptake. The assay is described as follows: Inhibition of 5HT uptake in vitro: synaptosomal uptake of 3H-serotonin in rat cortical synaptosomes. It is filed as biochemical, rat (male Sprague-Dawley). To be noted: 50 nM 3H-5HT, 37° C., 5 min. As for the experimental part:
(§1) This general procedure is set forth by Wong et al., in Drug Development Research 6:397-403 (1985).
(§2) Male Sprague-Dawley rats (110-150 g) from Harlan Industries (Cumberland, IN) were fed a Purina Chow ad libitum for at least 3 days before being used in the studies. Rats were killed by decapitation. Whole brains were removed and dissected. Cerebral cortex was homogenized in 9 volumes of a medium containing 0.32 M sucrose and 10 mM glucose. Crude synaptosomal preparations were isolated after differential centrifugation at 1,000 g for 10 min. and 17,000 g for 28 min. The final pellets were suspended in the same medium and kept in ice until use within the same day.
(§3) Synaptosomal uptake of ^3 H-serotonin(^3 H-5hydroxytryptamine, ^3 H-5HT) and ^14 C-l-norepinephrine (^14 C-NE) was determined as follows. Cortical synaptosomes (equivalent to 1 mg of protein) were incubated at 37° C. for 5 min in 1 ml of Krebs-bicarbonate medium containing also 10 mM glucose, 0.1 mM iproniazid, 1 mM ascorbic acid, 0.17 mM EDTA, 50 nM ^3 H-5HT and 100 nM ^14 C-NE The reaction mixture was immediately diluted with 2 ml of ice-chilled Krebs-bicarbonate buffer and filtered under vacuum with a cell harvester (Brandel, Gaithersburg, MD). Filters were rinsed twice with approximately 5 ml of ice-chilled 0.9% saline and were transferred to a counting vial containing 10 ml of scintillation fluid (PCS, Amersham, Arlington Heights, IL). Radioactivity was measured by a liquid scintillation spectrophotometer. Accumulation of ^3 H-5HT and ^14 C-NE at 4° C. represented the background and was subtracted from all samples.

Assay [2] deals with norepinephrine (NE) uptake. Put plainly: Inhibition of norepinephrine uptake in vitro: synaptosomal uptake of 14C-l-norepinephrine in rat cortical synaptosomes. The assay is classed as biochemical, rat (male Sprague-Dawley). To be noted: 100 nM 14C-NE, 37° C., 5 min. The procedure:
as §1, §2, §3

With `Cc1ccc(C(CCN(C)C)Oc2cccc3ccccc23)s1` (stereo not shown) [Example 3, N,N-Dimethyl-3-(1-naphthalenyloxy)-3-(5-methyl-2-thienyl)propanamine oxalate], the IC50 was determined as 55 nM in assay [1] and 720 nM in assay [2].
For `CNCCC(Oc1cccc2ccccc12)c1ccsc1` (stereo not shown) [Example 9, N-Methyl-3-(1-naphthalenyloxy)-3-(3-thienyl)propanamine oxalate] the same measures were 18 nM and 69 nM.

Broadly, the IC50 is the concentration needed to halve the response being measured.
